According to patent US20080199550A1, “Novel Anticancer Agent, Methods for Obtaining the Same and Pharmaceutical Compositions Thereof” (priority 2005, published 2008):
≈ marks a conversion by molar mass, not a printed value.

How the values were obtained:
cancer cells = test: Cell proliferation assay, all the cell lines; type: cell-based
Method: (§1) For assaying the inhibitory effects of the samples on cell proliferation, cancer cells were seeded into a 96-well tissue culture plate at a cell density of 5×10^4 cells per well and incubated with plant extract at different concentrations for 24 hours in a humidified atmosphere containing 5% CO2 at 37° C. The viable and dead cell counts were performed as per trypan blue exclusion method and results were recorded.

telomerase = target: T1, telomerase (Homo sapiens, UniProt O14746); test: Telo TAGGG Telomerase PCR ELISA; type: cell-based; conditions: MCF-7; 6.25 μg/ml; 48 and 72 hours
T1 construct: endogenous in cells; host or cells: MCF-7
T1 sequence (O14746 whole entry): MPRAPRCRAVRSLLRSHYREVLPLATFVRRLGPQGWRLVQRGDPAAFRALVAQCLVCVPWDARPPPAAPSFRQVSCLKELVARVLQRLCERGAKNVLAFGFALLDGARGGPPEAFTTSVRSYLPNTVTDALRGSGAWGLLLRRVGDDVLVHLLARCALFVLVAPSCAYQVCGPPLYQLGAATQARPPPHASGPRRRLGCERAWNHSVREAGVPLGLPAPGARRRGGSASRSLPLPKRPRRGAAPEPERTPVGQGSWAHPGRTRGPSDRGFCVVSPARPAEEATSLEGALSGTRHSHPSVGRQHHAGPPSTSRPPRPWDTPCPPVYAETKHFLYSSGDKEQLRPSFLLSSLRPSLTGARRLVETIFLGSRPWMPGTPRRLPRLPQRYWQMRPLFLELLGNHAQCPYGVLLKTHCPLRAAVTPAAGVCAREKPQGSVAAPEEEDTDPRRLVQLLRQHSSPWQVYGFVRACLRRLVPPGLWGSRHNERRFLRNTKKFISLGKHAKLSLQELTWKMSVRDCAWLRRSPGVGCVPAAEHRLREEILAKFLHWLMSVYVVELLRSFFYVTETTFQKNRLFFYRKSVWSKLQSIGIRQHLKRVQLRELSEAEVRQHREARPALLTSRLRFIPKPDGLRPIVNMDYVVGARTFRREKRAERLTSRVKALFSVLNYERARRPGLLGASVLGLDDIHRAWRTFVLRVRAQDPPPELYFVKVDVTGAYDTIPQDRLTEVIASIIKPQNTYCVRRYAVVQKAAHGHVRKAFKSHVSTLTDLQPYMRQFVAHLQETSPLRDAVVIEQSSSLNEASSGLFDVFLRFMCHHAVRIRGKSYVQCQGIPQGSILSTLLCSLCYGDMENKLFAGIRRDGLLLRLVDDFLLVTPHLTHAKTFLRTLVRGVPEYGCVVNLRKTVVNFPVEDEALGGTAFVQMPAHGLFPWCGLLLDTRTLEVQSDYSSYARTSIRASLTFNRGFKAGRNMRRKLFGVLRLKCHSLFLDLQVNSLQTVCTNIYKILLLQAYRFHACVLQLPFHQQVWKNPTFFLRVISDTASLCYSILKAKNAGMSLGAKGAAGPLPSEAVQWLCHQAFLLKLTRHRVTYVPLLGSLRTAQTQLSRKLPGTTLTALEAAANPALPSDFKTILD
Method: In the present study the telomerase activity of the cancer cell were assessed following the treatment with the samples with the help of Telomerase PCR ELISA (Roche, Germany). Cells were plated in a 24 well plate (2×10^5 cells per well) in DMEM supplemented with FBS (10%) and incubated for 48 hours and 72 hours in a humidified atmosphere with 95% air and 5% CO2 at 37° C. with (6.25 μg/ml) or with out (Control) the samples. Cells of the positive control group were treated with paclitaxel at 1.75 μg/ml and incubated as above. This experiment was done in human breast cancer cells (MCF-7). The cell pellets were washed with PBS and resuspended in lysis solution (200 μl) and the debris was pelleted and the supernatant was transferred to a fresh tube. The Telo TAGGG Telomerase PCR ELISA (Roche) was carried as per the manufacturer's protocol. The samples were added to a PCR amplification tube containing reaction mixture (Tris Buffer with telomerase substrate, nucleotides, Taq polymersase biotin labeled primer 1 and primer 2 specific to telomere fragment) and nuclease free water and allowed for elongation for 33 cycles in a Thermal Cycler (MJ Research, PTC 100). […] The reaction was stopped with the help of 1N H2SO4 and was read in an ELISA plate reader at a test wavelength of 450 nm and reference wavelength of 690 nm.

[1] = system: NMU induced breast tumours; test: N-nitroso-N-methylurea induced model of breast cancer in rats; type: in vivo, rat; conditions: 25 mg/kg po daily 3 weeks then 12.5 mg/kg i.p. twice a week 5 weeks, comparable to tamoxifen
Method: A standard protocol for induction of breast cancer in female Sprague-Dawley rats (7 to 8 weeks of age and weight range of 80-100 gms) with a single dose of N-nitroso-N-methylurea (NMU) was used for the study. The rats were obtained from animal facility, R & D center, The Himalaya Drug Company, Bangalore. They were maintained on standard pellet diet (Lipton India Ltd., Mumbai) and water ad libitum. Around 60 rats were selected and NMU was administered intraperitoneally at a dose of 50 mg/kg b.wt. NMU was dissolved in saline and pH adjusted to 4.8. Animals were observed daily to assess general health. […]
Three longest possible diameters were recorded, and tumour volume (cm^3) was calculated using the formula LX W X B.
The variations of the total surface areas of tumors between day 1 and day 57 were analyzed using a two-way ANOVA for repeated measurements. […]

S-180 cells = test: Sarcoma bearing mice; type: in vivo, mouse
Method: Adult, male age-matched Swiss albino mice (29-34 g) housed in groups of four to five in plastic cages, received laboratory rodent chow and tap water ad libitum 14 days prior to experimentation in a temperature controlled room with a 12-h dark/light cycle. S-180 cells maintained in the peritoneal cavity of male mice were used for testing the antitumour activity. The cell suspension was diluted to 1.18×10^8 cells/ml, and 0.1 ml of the suspension was inoculated intra-peritoneally into the mice. The tumour-bearing mice were treated, 24 hrs after inoculation, by i.p. injections of 10 and 20 mg/kg of HAC-01 (2 mg/ml with vehicle in physiological saline solution) at the dosage of 0.05 and 0.1 ml/10 gm b.wt. of mouse every other day for 14 days (Total 7 injections). The control group was treated with vehicle in 0.9% NaCl. The mice b.wt. was recorded at 0,4,8, 11,16,18,20,22 and 24th day.
All data were presented as mean ±SD. Statistical significance was evaluated by t test. P<0.05 is considered as statistically significant.
White blood cell (WBC) and differential leukocyte counts were measured from freely flowing tail vein blood of normal control, sarcoma control and HAC-01 treated groups.

Colo-320 DM = test: Cell proliferation assay (trypan blue exclusion); type: cell-based, human
Method: as §1

MCF-7 [2] = test: Cell proliferation assay (trypan blue exclusion); type: cell-based, human
Method: as §1

MDA cells = test: Cell proliferation assay (trypan blue exclusion); type: cell-based, human
Method: as §1

MCF-7 cells = test: Assay for influence of estrogen; type: cell-based, human; conditions: with or without estradiol, 24 h
Method: The efficacy of HAC-1 was studied to assess the hormone dependent or independent activity on cell proliferation. For this purpose MCF-7 cells were initially seeded in a 24 well plate with DMEM supplemented with 10% FCS and incubated for 24 hours in a humidified atmosphere with 5% CO2 and 95% air at 37° C. The cells were then shifted to charcoal striped medium supplemented with 1% bovine albumin serum (BSA,) with or with out the estradiol and HAC-1 and incubated further for a period of 24 h. After the incubation the cell population in each of the groups was recoded by trypan blue exclusion method.

MCF-7 [3] = test: Cell viability (MTT) assay; type: cell-based, human
Method: The screening of samples was done in human breast cancer cells (MCF-7, MDA-MB-468, ZR-75-1 and SK-Br-3), human liver carcinoma cells (HepG2), human colon adinocacinoma cells (Colo320 D-M), human acute promylocytic leukemia cells (HL-60), mouse sarcoma cells (Sarcoma 180), mouse melanoma cells (C57/B1/6J). Cells were maintained in DMEM, RPMI 1640(colo320-D-M and HL-60) and Mecoy's medium (SKBr-3) supplemented with 10% Fetal Calf Serum (FCS) and antibiotics (100 IU/ml of penicillin and 100 μg/ml of streptomycin) till they achieved 80% confluence in a humidified atmosphere containing 5% CO2 at 37° C. The cultures were passaged upon confluence on a regular basis. […] Morphological changes in the cells were recorded
It was performed after removal of the culture supernatants; MTT assay was performed to assess the viability of cells. […] The plates were read on a micro plate reader using a reference wavelength of 690 nm and a test wavelength of 540 nm.
For calculation of IC50 value, the data were analyzed by no leaner regression (Curve Fit) analysis using Graph Pad Prism version 4.00. The results of cell proliferation and other parameters were analyzed by one-way ANOVA with Bonferroni's Multiple Comparison Test.

HL-60 cells = test: Genomic DNA extraction / DNA fragmentation; type: cell-based, human; conditions: 7 ug/ml, 48 h
Method: For assessing the extent of damage to the cellular DNA following the HAC-1 treatment, the cells under investigation were seeded in 25 cm^2 tissue culture flasks at a cell density of 1×10^6 cells per flask and incubated for different time points in a humidified atmosphere containing 5% CO2 at 37° C. The cells after incubation with samples at 7 μg/ml for 24, 48 and 72 hours were pelleted, The cell pelleted were washed with the PBS and incubated in a shaking hot water bath at 37 C. for 1-2 hours with lysis buffer for mammalian DNA extraction. The lysate was then treated with 1.5 volumes of Isopropyl alcohol and the DNA pelleted by centrifuging at […] for 20 minutes The DNA was dissolved in Tris EDTA (TE pH 8.00) and was run on 2% agarose and the visualized with the help of a gel documentation system (Pharmacia) and recorded.

MCF-7 [4] = test: DNA integrity assay (acredine orange, fluorescent microscope); type: cell-based, human; conditions: end of 48 h of incubation
Method: It was observed by direct visualization under fluorescent microscope. The cell pellets were treated with acredine orange (t 1:10 dilution) and directly visualized under fluorescent microscope under UV spectrum and the changes in the DNA were documented.

Compound	growth inhibition (cancer cells; at 1.75 μg/ml)	telomerase activity compared to control (telomerase)	tumor volume [1]	differential count of WBC (neutrophils, lymphocytes) (S-180 cells; sarcoma bearing mice, 20 mg/kg, i.p.)	weight gain (S-180 cells; tumour bearing mice, i.p. 10 and 20 mg/kg every other day for 14 days)	effective concentration to induce 50% inhibition of proliferation (Colo-320 DM) [µg/mL]	effective concentration to induce 50% inhibition of proliferation (MCF-7 [2]) [µg/mL]	effective concentration to induce 50% inhibition of proliferation (MDA cells) [µg/mL]	influence of estrogen on drug activity (MCF-7 cells)	IC50 (MCF-7 [3]) [µg/mL]	apoptosis (DNA pattern) (HL-60 cells)	cells found apoptosed completely (MCF-7 [4])	cell proliferation compared to control (cancer cells; all the cell lines, p<0.001 and p<0.01)
CC(=O)O[C@H]1C(=O)[C@@]2(C)[C@H]([C@H](OC(=O)c3ccccc3)[C@]3(O)C[C@H](OC(=O)[C@H](O)[C@@H](NC(=O)c4ccccc4)c4ccccc4)C(C)=C1C3(C)C)[C@]1(OC(C)=O)CO[C@@H]1C[C@@H]2O [paclitaxel, reference compound]	marked growth inhibition	–	–	–	–	–	–	–	–	–	–	–	–
CC1=C2C3OC(=O)C(C)C3(O)CCC2(C)CCC1 (stereo not shown) [HAC-1, 7-hydroxyeudesm-4-en-6,12-olide]	–	inhibition in the telomarase activity	significantly reduced the tumor volume	restore these altered parameters to near normal	significantly reduced the weight gain	2	4	2	drug activity is independent of estrogen	1.62 (≈ 6.47 µM)	induced apoptosis	more than 80%	significantly inhibited
